In brackets after ≈: the same amount, converted by molar mass. Entries after “also recorded” stand apart in the source; their conditions may differ. Each block holds one molecule with its values, some of them ahead of it.
Columns and labels:
C. albicans = assay: planktonic MIC, standard MIC methodologies; details: Candida albicans, read-out: planktonic MIC
G. vaginalis = assay: planktonic MIC, standard MIC methodologies; format: cell-based, G. vaginalis ATCC #14018; details: Gardnerella vaginalis
Protocol: (§1) As a prelude to the biofilm experiments, the planktonic (i.e., free-floating vs. biofilm-associated) MIC values for boric acid and EDTA against both test organisms were established utilizing standard MIC methodologies. In contrast to C. albicans, the planktonic MIC values for boric acid and EDTA against G. vaginalis had not previously been reported.
(§2) In preparation of the biofilm experiments relating to the invention, overnight cultures of C. albicans and G. vaginalis were prepared by adding 1 mL frozen stock to 9 mL growth media (either G. vaginalis ATCC #14018 in 50% BHI broth+1% starch, or C. albicans ATCC #96113 in 50% SD broth+1% sucrose) and incubated for 24 hours at 37° C., C. albicans was grown under atmospheric conditions while G. vaginalis was grown with the addition of 5% CO2.
(§3) Next, the 24 biofilm-covered coupons were aseptically removed from the CDC reactor and placed in a 24-well plate, with each well containing 2 mL of test solution. The test solutions were run in triplicate and included varied concentrations of boric acid (BA) and EDTA or a combination thereof. […] Fluconazole at a concentration of 8 μg/mL was selected as the treatment control for C. albicans.

[1] = test system: common bacterial pathogens; details: literature (Meers 1990); cited from earlier work
[2] = test system: clinical isolates of C. albicans as well as non-albicans species; details: literature (Shubair 1990; Prutting 1998); cited from earlier work
recurrent BV = test system: recurrent BV
Protocol: A retrospective case review was conducted of the use of boric acid in a series of patients with recurrent BV. Boric acid was employed as an antimicrobial agent as part of a 6-month sequential treatment protocol.
With the exception of boric acid, all of the other antimicrobials used were FDA approved for BV. The 6-month protocol was as follows: • 1. Induction: oral metronidazole or tinidazole twice daily for 7-10 days • 2. Boric acid treatment: 600-mg gelatin capsule inserted vaginally daily for 21 days • 3.

[3] = including vaginal secretions and tissues; oral dosing, maximum daily dose 400 mg; cited from earlier work
BV biofilm = details: oral 500 mg twice daily for 7 days, cited from earlier work
G. vaginalis biofilm = assay: biofilm disruption in CDC biofilm reactor; format: cell-based, G. vaginalis ATCC #14018; details: metronidazole 192 μg/mL, 24-hour treatment
Protocol: as §1, §2, §3

G. vaginalis isolates = details: conventional planktonic MIC testing; cited from earlier work

MIC (C. albicans): 780 µg/mL (≈ 2.67 mM)
MIC (G. vaginalis): 190 µg/mL
SMILES: O=C(O)CN(CCN(CC(=O)O)CC(=O)O)CC(=O)O [EDTA, ethylene-diamine-tetra-acetic acid]

SMILES: OB(O)O [boric acid]
antibacterial activity in vitro [1]: bacteriostatic activity
antifungal activity in vitro [2]: weakly fungistatic
MIC (C. albicans): 1560 µg/mL (≈ 25.2 mM)
treatment failures during boric acid therapy (recurrent BV; 600-mg vaginal capsule daily for 21 days): none of the treatment failures occurred during boric acid therapy
patients remaining cured (recurrent BV; at 9 months (3 months after maintenance)): Sixty-seven
patients clinically cured (asymptomatic and negative for Amsel's criteria) (recurrent BV; end of 6 months, nitroimidazole induction, boric acid 600 mg vaginally daily 21 days, metronidazole gel maintenance, 24/31): 77%
secondary yeast infection or discontinuation because of adverse event or intolerance (recurrent BV; in vivo): none of the patients experienced a secondary yeast infection or discontinued
median duration of remission (recurrent BV; retrospective case series): 8.7 months
MIC (G. vaginalis): 3120 µg/mL

SMILES: OC(Cn1cncn1)(Cn1cncn1)c1ccc(F)cc1F [fluconazole, Fluconazole]
drug levels achieved in biologic fluids and tissues [3]: 4.12-8.08 μg/mL

MIC (G. vaginalis): 128 µg/mL
SMILES: Cc1ncc([N+](=O)[O-])n1CCO [metronidazole]
vaginal biopsy result (fluorescent in situ hybridization) (BV biofilm; G. vaginalis and Atopobium): persistent accumulation of core pathogenic bacteria
clinical response by standard clinical and microbiologic methods (BV biofilm; each time point): resolution of BV
effect of active control on G. vaginalis biofilm (G. vaginalis biofilm): little impact; also recorded: minimal impact
susceptibility of G. vaginalis isolates (G. vaginalis isolates): good susceptibility

— patent publication US8349368B2, “Compositions and methods for treating vaginal infections and pathogenic vaginal biofilms” (priority 2007, dated 2013)
